Data taken from PMC10364322, “Evaluation of chronic drug-induced electrophysiological and cytotoxic effects using human-induced pluripotent stem cell-derived cardiomyocytes (hiPSC-CMs)” (Frontiers in Pharmacology, 2023).
Like-named read-outs stand apart in the source and are kept apart here.

Experiments:
[1] = test system: hiPSC-CMs (iCell-Cardiomyocytes^2); assay: MEA impedance (cytotoxicity readout) in hiPSC-CMs
Description: (§1) Cells were seeded according to the instructions of the cell provider, in fibronectin-coated 48-well MEA plates (Axion Cytoview Plates, M768-tMEA-48B) at a density suited to form a monolayer (i.e., 50 K/well) and maintained in culture in a stage incubator (37°C, 5% CO2).
(§2) At least 4 h before the beginning of the baseline measurements, a full medium exchange was performed (to a final volume of 400 µL per well). Neat compounds were dissolved in 100% DMSO at a stock concentration 1000-fold the highest target concentration. […] Afterwards, these stock solutions were diluted with Maintenance medium (CDi), to 10-fold the intended concentration. The final DMSO concentration in test solutions and vehicle control was 0.1%.
(§3) Spontaneous electrical activity was recorded in hiPSC-CMs monolayers as field potentials using the Maestro Pro MEA instrument (Axion Biosystems, Atlanta, GA, United States), which allows the maintenance of accurate temperature and CO2 levels (37°C, 5% CO2). After the plate was placed in the Maestro Pro and allowed to equilibrate for about 10 min, baseline acquisition of field potential and impedance signals was initiated and lasted for 5 min each. […] As impedance measures resistance of an applied alternating current through the hiPSC-CMs monolayer, a reduction in the attachment of hiPSC-CMs to the bottom of the well due to cell death or changes in the monolayer morphology, causes a drop in the impedance signal.
(§4) After the acquisition of all timepoint measurements, raw data were loaded into the data analysis software Axion Cardiac Analysis Tool (V.3.2.3). […] A.csv file containing information on the FP parameters per well, per time point, was then generated and used as input to the in-house data management system (SPEcII v.3.4, Unlimit-IT, Geel, Belgium), where descriptive statistics were calculated. Summary values at different time points after compound addition are expressed as percent change from baseline and shown as mean ± standard deviation (SD).
(§5) The nonparametric Wilcoxon-Mann Whitney Test was used to compare the percent change from the baseline (Δ%) value between the group treated with the compound at a given concentration and the group treated with the DMSO at each matching time points. A two-sided test at 5% significance level was considered. […] To assess the physiological relevance of changes, a tolerance interval of DMSO experiments was calculated at each time point, for each parameter. […] TIs indicate an interval where, with a certain confidence level (1- α = 0.95), a specified proportion (p = 0.80) of percent change for DMSO data falls. The lower and upper limits based on the TI values were used as cut-offs for the interpretation of the changes. For the cytotoxicity assays, measurements of fluorescence (after background fluorescence subtraction) from wells treated with the compounds were normalized by the average value of vehicle experiments (DMSO 0.1%) to obtain a DMSO-corrected, delta/delta percent change. Experiments from each condition, as delta/delta percent, were averaged and expressed as mean ± SD. Statistical analysis was performed using a non-parametric test (Kruskal-Wallis) and each treatment condition was compared to the relative DMSO 0.1%. Differences were considered statistically significant when the p-value was smaller than 0.05.

[2] = free therapeutic Cmax in humans; ref FDA-approved drug packages, PharmaPendium; cited from earlier work
[3] = test system: hiPSC-CMs (iCell-Cardiomyocytes^2)
Description: as §1, §2, §3
The potential presence of various arrhythmic events was evaluated and noted during the data analysis.
as §4, §5

[4] = all concentrations tested, up to 96 h

Question: Which results are given for CC(=O)Oc1ccccc1C(=O)O [Aspirin]?
Answer: Imp (impedance), % change from baseline ([1]; 3 µM, 72h): -2±2%; Imp (impedance), % change from baseline ([1]; 3 µM, 96h): -7±3%; Imp (impedance), % change from baseline ([1]; 3 µM, 2h): 5±3%; Imp (impedance), % change from baseline ([1]; 3 µM, 24h): -9±4%; Imp (impedance), % change from baseline ([1]; 3 µM, 48h): -10±2%; Imp (impedance), % change from baseline ([1]; 10 µM, 2h): 6±2%; Imp (impedance), % change from baseline ([1]; 10 µM, 24h): -8±3%; Imp (impedance), % change from baseline ([1]; 10 µM, 48h): -7±3%; Imp (impedance), % change from baseline ([1]; 10 µM, 72h): -4±5%; Imp (impedance), % change from baseline ([1]; 10 µM, 96h): -6±6%; Imp (impedance), % change from baseline ([1]; 30 µM, 2h): 6±4%; Imp (impedance), % change from baseline ([1]; 30 µM, 24h): -4±3%; Imp (impedance), % change from baseline ([1]; 30 µM, 48h): -8±3%; Imp (impedance), % change from baseline ([1]; 30 µM, 72h): -1±2%; Imp (impedance), % change from baseline ([1]; 30 µM, 96h): -3±2%; Imp (impedance), % change from baseline ([1]; 100 µM, 2h): 8±1%; Imp (impedance), % change from baseline ([1]; 100 µM, 24h): -7±4%; Imp (impedance), % change from baseline ([1]; 100 µM, 48h): -11±3%; Imp (impedance), % change from baseline ([1]; 100 µM, 72h): -2±6%; Imp (impedance), % change from baseline ([1]; 100 µM, 96h): -6±7%; effect on impedance [1, 4]: did not have a significant effect on impedance; Free Cmax [2]: 11.1 µM; BR (beating rate), % change from baseline ([3]; 3 µM, 72h): -10±2%; FPD (field-potential duration), % change from baseline ([3]; 3 µM, 72h): 16.3±2.2%; BR (beating rate), % change from baseline ([3]; 3 µM, 96h): -18±1%; FPD (field-potential duration), % change from baseline ([3]; 3 µM, 96h): 25.2±3.5%; BR (beating rate), % change from baseline ([3]; 3 µM, 2h): 2±2%; FPD (field-potential duration), % change from baseline ([3]; 3 µM, 2h): 2.5±1.6%; BR (beating rate), % change from baseline ([3]; 3 µM, 24h): 1±2%; FPD (field-potential duration), % change from baseline ([3]; 3 µM, 24h): 6.2±3%; BR (beating rate), % change from baseline ([3]; 3 µM, 48h): -7±1%; FPD (field-potential duration), % change from baseline ([3]; 3 µM, 48h): 13.2±2.8%; BR (beating rate), % change from baseline ([3]; 10 µM, 2h): 3±2%; FPD (field-potential duration), % change from baseline ([3]; 10 µM, 2h): 4±7.9%; BR (beating rate), % change from baseline ([3]; 10 µM, 24h): 2±3%; FPD (field-potential duration), % change from baseline ([3]; 10 µM, 24h): 5.8±4.5%; BR (beating rate), % change from baseline ([3]; 10 µM, 48h): -8±3%; FPD (field-potential duration), % change from baseline ([3]; 10 µM, 48h): 12.2±6.3%; BR (beating rate), % change from baseline ([3]; 10 µM, 72h): -9±2%; FPD (field-potential duration), % change from baseline ([3]; 10 µM, 72h): 14.6±6.7%; BR (beating rate), % change from baseline ([3]; 10 µM, 96h): -17±3%; FPD (field-potential duration), % change from baseline ([3]; 10 µM, 96h): 23.3±7.8%; BR (beating rate), % change from baseline ([3]; 30 µM, 2h): 3±2%; FPD (field-potential duration), % change from baseline ([3]; 30 µM, 2h): 0.9±1.8%; BR (beating rate), % change from baseline ([3]; 30 µM, 24h): 0±4%; FPD (field-potential duration), % change from baseline ([3]; 30 µM, 24h): 6.7±3.9%; BR (beating rate), % change from baseline ([3]; 30 µM, 48h): -8±2%; FPD (field-potential duration), % change from baseline ([3]; 30 µM, 48h): 13.5±5.1%; BR (beating rate), % change from baseline ([3]; 30 µM, 72h): -9±3%; FPD (field-potential duration), % change from baseline ([3]; 30 µM, 72h): 15.4±5%; BR (beating rate), % change from baseline ([3]; 30 µM, 96h): -18±4%; FPD (field-potential duration), % change from baseline ([3]; 30 µM, 96h): 23.3±4.7%; BR (beating rate), % change from baseline ([3]; 100 µM, 2h): 2±3%; FPD (field-potential duration), % change from baseline ([3]; 100 µM, 2h): 0.2±2.9%; BR (beating rate), % change from baseline ([3]; 100 µM, 24h): -2±3%; FPD (field-potential duration), % change from baseline ([3]; 100 µM, 24h): 7.2±3.6%; BR (beating rate), % change from baseline ([3]; 100 µM, 48h): -7±2%; FPD (field-potential duration), % change from baseline ([3]; 100 µM, 48h): 13.4±3%; BR (beating rate), % change from baseline ([3]; 100 µM, 72h): -10±3%; FPD (field-potential duration), % change from baseline ([3]; 100 µM, 72h): 17.6±2%; BR (beating rate), % change from baseline ([3]; 100 µM, 96h): -16±4%; FPD (field-potential duration), % change from baseline ([3]; 100 µM, 96h): 23.9±1.7%; cessation of beating, flat T-wave or arrhythmic-like events [3, 4]: no cessation of beating, flat T-wave or arrhythmic-like events were detected
